The source of these data is ChEMBL document CHEMBL3217572, “Preparation and evaluation of BBB-permeable trehalose derivatives as potential therapeutic agents for Huntington's disease” (Medchemcomm, 2013).

For series [1], the target named is Huntingtin (Homo sapiens) (UniProt P42858). Briefly: Inhibition of N-terminal GFP-tagged Htt-exon1-Q103 (unknown origin) transfected in HEK293A cells assessed as reduction of Htt-Q103 aggregate formation at 50 uM after 3 days by fluorescence microscopic analysis. It is filed as cell-based. The conditions noted are these: HEK293-A.
The next series has as its system RAW264.7. The series can be described thus: Cytotoxicity against mouse RAW264.7 cells by MTT assay. It is filed as cell-based. (In general: Tetrazolium dyes change colour on reduction, which living cells bring about.)
In series [2] the test system is HeLa. Briefly: Cytotoxicity against human HeLa cells by MTT assay. It is filed as cell-based.
The nature of series [3]: Cytotoxicity against african green monkey COS7 cells by MTT assay. It is filed as cell-based. The note with it: Chlorocebus aethiops, COS-7.
The target in series [4] is Huntingtin (Homo sapiens) (UniProt P42858). The series can be described thus: Inhibition of N-terminal GFP-tagged Htt-exon1-Q25 (unknown origin) transfected in HEK293A cells assessed as reduction of Htt-Q103 aggregate formation at 50 uM after 3 days by fluorescence microscopic analysis. It counts as cell-based. The conditions noted are these: HEK293-A.
The nature of series [5]: Solubility in water. The note with it: buffer. It is filed as physicochemical.
The target in series [6] is Huntingtin (Homo sapiens) (UniProt P42858). The series can be described thus: Inhibition of N-terminal GFP-tagged Htt-exon1-Q103 (unknown origin) transfected in Neuro2a cells assessed as reduction of Htt-Q103 aggregate formation at 100 uM by fluorescence microscopic analysis. It is filed as cell-based.
Series [7] has the same target. Briefly: Inhibition of N-terminal GFP-tagged Htt-exon1-Q103 (unknown origin) transfected in HEK293A cells assessed as reduction of Htt-Q103 aggregate formation at 200 uM by filter trap assay. It counts as cell-based. The note with it: HEK293-A.
Series [8] relates to Mus musculus. Briefly: Inhibition of mutated huntingtin aggregate formation in liver homogenate of R6/2 transgenic mouse at 1%, po after 4 to 8 weeks by Western blotting analysis. It counts as functional, organism-based. (In general: Immunoblotting shows a protein as a band on a membrane.)
For series [9], the system named is Mus musculus. The series can be described thus: Inhibition of mutated aggregate formation in brain homogenate of R6/2 transgenic mouse at 1%, po by Hoechst staining-based by immunohistochemistry. It counts as functional, organism-based.
The subject of series [10] is Mus musculus. The series can be described thus: Toxicity in R6/2 transgenic mouse assessed as body weight loss at 1%, po measured on week 12. It counts as organism-based. The note with it: in vivo.
Series [11] deals with Mus musculus. Briefly: Neuroprotective activity in R6/2 transgenic mouse assessed as increased mean survival time at 1%, po (reference value: 93 days). It counts as functional.
For series [12], the system named is Brain. Briefly: Biodistribution in C57BL/6 mouse brain at 454 mg/kg, po after 24 hrs by fluorescence microscopic analysis. The note with it: in vivo. It counts as ADME, organism-based. Also on record: dose 454 mg/kg, route oral.
The test system of a further series is Spleen. The series can be described thus: Biodistribution in C57BL/6 mouse spleen at 454 mg/kg, po after 24 hrs by fluorescence microscopic analysis. Also on record: dose 454 mg/kg, route oral. It counts as ADME, organism-based. The note with it: in vivo.
The subject of a further series is Kidney. The series can be described thus: Biodistribution in C57BL/6 mouse kidney at 90.9 mg/kg, ip after 60 mins by fluorescence microscopic analysis. It counts as ADME, organism-based. The conditions noted are these: in vivo, 1 h. Also on record: dose 90.9 mg/kg, route intraperitoneal.
Series [13] has as its system Brain. The series can be described thus: Biodistribution in C57BL/6 mouse brain at 90.9 mg/kg, ip after 60 mins by fluorescence microscopic analysis. It is filed as ADME, organism-based. Set-up: dose 90.9 mg/kg, route intraperitoneal. The note with it: in vivo, 1 h.
Series [14] has as its system Mus musculus. The series can be described thus: Toxicity in C57BL/6 mouse at 454 mg/kg, po. It counts as organism-based. Also on record: dose 454 mg/kg, route oral. The note with it: in vivo.
The test system of series [15] is Mus musculus. The series can be described thus: Toxicity in C57BL/6 mouse at 90.9 mg/kg, ip. It counts as organism-based. Also on record: dose 90.9 mg/kg, route intraperitoneal. The conditions noted are these: in vivo.
Series [16] deals with HeLa. Briefly: Cellular uptake in human HeLa cells at 5 to 10 uM after 10 mins by FACS analysis. It is filed as ADME, cell-based. (A flow cytometer gives signals particle by particle.)
Series [17] is described as follows: Cellular uptake in cytoplasm of human HeLa cells at 10 uM after 10 mins by confocal microscopic analysis in presence mitotracker. It counts as ADME, cell-based.
A short description of series [18]: Cellular uptake in cytoplasm of human HeLa cells at 1 uM up to 1 hr by confocal microscopic analysis. It counts as ADME, cell-based.
A short description of series [19]: Cellular uptake in nucleus of human HeLa cells at 1 uM up to 1 hr by confocal microscopic analysis. It counts as ADME, cell-based.
Series [20] deals with Mus musculus. The series can be described thus: Neuroprotective activity in R6/2 transgenic mouse assessed as increased locomotory activity at 0.4%, po measured for 20 mins. It counts as functional, organism-based.
Series [21] deals with Mus musculus. Briefly: Neuroprotective activity in R6/2 transgenic mouse assessed as reduction of foot-clasping posture at 0.4%, po measured on week 8. It counts as functional, organism-based.
Series [22] addresses Huntingtin (Homo sapiens) (UniProt P42858). The series can be described thus: Inhibition of N-terminal Htt-exon1-Q103 (unknown origin) transfected in mouse Neuro2a cells assessed as decrease in soluble and insoluble aggregate formation by Western blotting analysis. It counts as cell-based.
Series [23] shares this target. Briefly: Inhibition of N-terminal GFP-tagged Htt-exon1-Q103 (unknown origin) transfected in HEK293A cells assessed as reduction of Htt-Q103 aggregate formation by filter trap assay. It is filed as cell-based. The conditions noted are these: HEK293-A.
Series [24] has the same target. Briefly: Inhibition of N-terminal Htt-exon1-Q103 (unknown origin) transfected in HEK293A cells at 50 uM by Western blotting analysis. The conditions noted are these: HEK293-A. It is filed as cell-based.
In series [25] the test system is Mus musculus. The series can be described thus: Neuroprotective activity in wild type mouse assessed as behavioral pattern at 0.4%, po. The note with it: in vivo. It is filed as ADME, organism-based.
The subject of series [26] is Mus musculus. Briefly: Inhibition of mutated aggregate formation in brain homogenate of R6/2 transgenic mouse at 0.4%, po by Hoechst staining-based by immunohistochemistry. It is filed as functional, organism-based.
The test system of series [27] is Mus musculus. The series can be described thus: Inhibition of mutated huntingtin aggregate formation in liver homogenate of R6/2 transgenic mouse at 0.4%, po after 4 to 8 weeks by Western blotting analysis. It is filed as functional, organism-based.
Series [28] relates to Mus musculus. Briefly: Inhibition of mutated huntingtin aggregate formation in brain homogenate of R6/2 transgenic mouse at 0.4%, po by Western blotting analysis. It counts as functional, organism-based.
The subject of series [29] is Mus musculus. Briefly: Toxicity in R6/2 transgenic mouse assessed as body weight loss at 0.4%, po measured on week 12. The note with it: in vivo. It is filed as organism-based.
Series [30] concerns Mus musculus. The series can be described thus: Toxicity in R6/2 transgenic mouse assessed as increase in body weight at 0.4%, po measured up to 9 weeks. The conditions noted are these: in vivo, 1512 h. It is filed as organism-based.
Series [31] deals with Mus musculus. Briefly: Neuroprotective activity in R6/2 transgenic mouse assessed as increase in mean survival time at 0.4%, po (reference value: 93 days). It counts as functional.
In series [32] the test system is Mus musculus. The series can be described thus: Neuroprotective activity in R6/2 transgenic mouse assessed as improved motor coordination and balance at 0.4%, po measured up to 8 weeks by rotarod test. It is filed as functional, organism-based.

The source made the active and inactive calls. The calls are words filed in the database; no cut-off is given here.

Huntingtin (Homo sapiens), sequence (P42858 whole entry): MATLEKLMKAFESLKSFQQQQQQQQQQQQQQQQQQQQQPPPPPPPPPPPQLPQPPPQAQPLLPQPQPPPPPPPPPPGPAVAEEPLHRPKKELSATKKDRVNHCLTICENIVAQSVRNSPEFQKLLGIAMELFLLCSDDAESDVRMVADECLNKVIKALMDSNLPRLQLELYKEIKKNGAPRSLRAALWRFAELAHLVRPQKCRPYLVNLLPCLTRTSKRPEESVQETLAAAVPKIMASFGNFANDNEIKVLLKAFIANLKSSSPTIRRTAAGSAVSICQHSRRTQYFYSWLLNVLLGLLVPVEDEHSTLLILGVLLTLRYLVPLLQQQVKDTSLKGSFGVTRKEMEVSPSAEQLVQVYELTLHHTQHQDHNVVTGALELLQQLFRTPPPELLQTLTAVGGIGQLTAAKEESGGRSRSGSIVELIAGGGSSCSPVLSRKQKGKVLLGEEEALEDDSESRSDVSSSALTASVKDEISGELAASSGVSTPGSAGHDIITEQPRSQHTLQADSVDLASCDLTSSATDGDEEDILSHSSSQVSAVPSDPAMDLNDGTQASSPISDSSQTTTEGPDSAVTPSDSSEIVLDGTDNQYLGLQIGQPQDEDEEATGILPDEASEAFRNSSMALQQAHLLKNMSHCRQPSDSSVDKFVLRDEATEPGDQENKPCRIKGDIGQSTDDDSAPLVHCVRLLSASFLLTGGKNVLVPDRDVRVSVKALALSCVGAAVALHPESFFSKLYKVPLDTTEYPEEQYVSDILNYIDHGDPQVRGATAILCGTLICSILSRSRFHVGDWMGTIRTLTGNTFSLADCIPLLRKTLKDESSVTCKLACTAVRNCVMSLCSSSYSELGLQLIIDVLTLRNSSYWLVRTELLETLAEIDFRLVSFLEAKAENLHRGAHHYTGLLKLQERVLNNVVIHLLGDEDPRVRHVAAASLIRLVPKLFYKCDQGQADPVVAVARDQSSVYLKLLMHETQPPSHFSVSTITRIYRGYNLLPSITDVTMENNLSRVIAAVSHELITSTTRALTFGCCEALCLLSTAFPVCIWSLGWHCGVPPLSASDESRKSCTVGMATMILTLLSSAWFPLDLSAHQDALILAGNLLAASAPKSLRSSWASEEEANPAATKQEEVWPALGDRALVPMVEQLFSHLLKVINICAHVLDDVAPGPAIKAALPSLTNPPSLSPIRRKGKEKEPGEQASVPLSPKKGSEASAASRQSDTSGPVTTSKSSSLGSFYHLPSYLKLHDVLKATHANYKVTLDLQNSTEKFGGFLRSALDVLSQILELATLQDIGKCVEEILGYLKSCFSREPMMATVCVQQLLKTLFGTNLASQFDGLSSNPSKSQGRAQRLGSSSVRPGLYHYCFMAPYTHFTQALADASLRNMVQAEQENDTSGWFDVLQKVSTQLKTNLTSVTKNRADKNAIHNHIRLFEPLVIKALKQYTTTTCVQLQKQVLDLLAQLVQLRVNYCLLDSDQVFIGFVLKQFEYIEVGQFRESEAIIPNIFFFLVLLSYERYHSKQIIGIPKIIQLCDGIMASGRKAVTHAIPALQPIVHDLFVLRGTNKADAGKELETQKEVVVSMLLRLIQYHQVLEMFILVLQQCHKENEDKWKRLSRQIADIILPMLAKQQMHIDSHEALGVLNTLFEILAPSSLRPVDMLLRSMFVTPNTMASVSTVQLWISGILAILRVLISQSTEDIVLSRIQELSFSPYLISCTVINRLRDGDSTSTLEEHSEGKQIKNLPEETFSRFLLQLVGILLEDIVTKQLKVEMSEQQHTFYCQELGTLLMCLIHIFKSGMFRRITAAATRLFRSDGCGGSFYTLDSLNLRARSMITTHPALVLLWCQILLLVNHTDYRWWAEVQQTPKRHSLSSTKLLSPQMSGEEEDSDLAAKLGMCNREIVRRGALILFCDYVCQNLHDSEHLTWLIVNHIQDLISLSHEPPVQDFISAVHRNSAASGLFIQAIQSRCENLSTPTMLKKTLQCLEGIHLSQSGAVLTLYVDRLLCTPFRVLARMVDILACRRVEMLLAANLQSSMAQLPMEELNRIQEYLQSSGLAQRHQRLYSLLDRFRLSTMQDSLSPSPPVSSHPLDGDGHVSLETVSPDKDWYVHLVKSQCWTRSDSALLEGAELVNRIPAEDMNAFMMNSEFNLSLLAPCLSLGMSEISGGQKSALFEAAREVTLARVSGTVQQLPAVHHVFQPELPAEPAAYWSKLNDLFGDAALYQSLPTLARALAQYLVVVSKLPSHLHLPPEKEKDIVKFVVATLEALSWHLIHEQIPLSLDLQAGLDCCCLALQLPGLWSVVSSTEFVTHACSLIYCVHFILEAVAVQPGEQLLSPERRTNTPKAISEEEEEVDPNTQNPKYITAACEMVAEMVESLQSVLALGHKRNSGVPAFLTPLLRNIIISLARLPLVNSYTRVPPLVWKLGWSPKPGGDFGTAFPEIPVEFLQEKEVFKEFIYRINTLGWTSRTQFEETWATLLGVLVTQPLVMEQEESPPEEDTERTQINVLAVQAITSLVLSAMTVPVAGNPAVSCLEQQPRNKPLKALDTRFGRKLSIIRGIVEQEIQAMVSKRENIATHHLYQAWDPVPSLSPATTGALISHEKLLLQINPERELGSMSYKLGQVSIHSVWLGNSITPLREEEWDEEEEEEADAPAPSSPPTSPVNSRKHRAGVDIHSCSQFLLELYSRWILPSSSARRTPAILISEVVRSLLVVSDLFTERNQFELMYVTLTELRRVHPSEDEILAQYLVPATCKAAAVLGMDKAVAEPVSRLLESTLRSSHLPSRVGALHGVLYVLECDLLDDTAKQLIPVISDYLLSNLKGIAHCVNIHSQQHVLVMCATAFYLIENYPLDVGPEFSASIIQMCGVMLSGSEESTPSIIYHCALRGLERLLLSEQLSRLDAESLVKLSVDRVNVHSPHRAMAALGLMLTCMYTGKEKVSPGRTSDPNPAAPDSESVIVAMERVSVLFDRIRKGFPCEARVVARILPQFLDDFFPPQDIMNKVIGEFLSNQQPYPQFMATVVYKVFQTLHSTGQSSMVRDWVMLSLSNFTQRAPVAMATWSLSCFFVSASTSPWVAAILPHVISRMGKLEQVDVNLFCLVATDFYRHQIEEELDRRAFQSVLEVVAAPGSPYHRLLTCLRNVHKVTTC

`Cl.N=C(N)NCCCCCC(=O)OC[C@H]1O[C@H](O[C@H]2O[C@H](COC(=O)CCCCCNC(=N)N)[C@@H](OC(=O)CCCCCNC(=N)N)[C@H](OC(=O)CCCCCNC(=N)N)[C@H]2OC(=O)CCCCCNC(=N)N)[C@H](OC(=O)CCCCCNC(=N)N)[C@@H](OC(=O)CCCCCNC(=N)N)[C@@H]1OC(=O)CCCCCNC(=N)N`: the inhibition result in series [1] and in series [4] was “inactive” throughout. The IC50 (in the series with RAW264.7; with HeLa [2]; in series [3]) was less than 100 µM throughout. Further, the solubility result in series [5] was “soluble”.

With `OC[C@H]1O[C@H](O[C@H]2O[C@H](CO)[C@@H](O)[C@H](O)[C@H]2O)[C@H](O)[C@@H](O)[C@@H]1O` [TREHALOSE], the inhibition result in series [6], in series [7] and in series [1] was “inactive” each time. In addition, the inhibition entry in the series on Mus musculus [8] and with Mus musculus [9] was “Active” in each case. In the series on Mus musculus [10], the Activity is 25%. Also, the MSD in the series on Mus musculus [11] was 94.5 days.

`Cl.N=C(N)NCCCCCC(=O)O[C@@H]1[C@@H](OC(=O)CCCCCNC(=N)N)[C@@H](O[C@H]2O[C@H](COC(=O)CCCCCNC(=S)Nc3ccc(-c4c5ccc(=O)cc-5oc5cc(O)ccc45)c(C(=O)O)c3)[C@@H](OC(=O)CCCCCNC(=N)N)[C@H](OC(=O)CCCCCNC(=N)N)[C@H]2OC(=O)CCCCCNC(=N)N)O[C@H](COC(=O)CCCCCNC(=S)Nc2ccc(-c3c4ccc(=O)cc-4oc4cc(O)ccc34)c(C(=O)O)c2)[C@H]1OC(=O)CCCCCNC(=N)N`: the Drug uptake entry (in the series on Brain [12]; in the series on Spleen; with Kidney; in the series on Brain [13]; in the series with HeLa [16]; in series [17]) was “Active” each time. The Drug uptake entry in [18] and in series [19] was “Active” throughout. Moreover, the Activity result in the series with Mus musculus [14] and in the series with Mus musculus [15] was “Non-toxic” in each case. For the same compound, the solubility entry in series [5] is listed as “soluble”.

Regarding `Cl.N=C(N)NCCCCCC(=O)O[C@@H]1[C@@H](OC(=O)CCCCCNC(=N)N)[C@@H](O[C@H]2O[C@H](CO)[C@@H](OC(=O)CCCCCNC(=N)N)[C@H](OC(=O)CCCCCNC(=N)N)[C@H]2OC(=O)CCCCCNC(=N)N)O[C@H](CO)[C@H]1OC(=O)CCCCCNC(=N)N`, the result with Mus musculus [20], with Mus musculus [21] and in the series on Mus musculus [32] was Active. Besides, the inhibition result in series [22] is “Dose-dependent effect”; in [6] (TDE = time-dependent effect), “tde”; in series [23], “Dose-dependent effect”. For the same compound, the inhibition entry (in [24]; in [1]; with Mus musculus [26]; in the series on Mus musculus [27]; in the series with Mus musculus [28]) was “Active” each time. In addition, the IC50 (in the series with RAW264.7; in the series on HeLa [2]; in series [3]) was more than 100 µM each time. In addition, the Activity result with Mus musculus [25] is “Non-toxic”; in the series on Mus musculus [29], 14%; with Mus musculus [30], “Non-toxic”. In addition, the inhibition entry in series [4] is “inactive”. In addition, the solubility result in series [5] is “soluble”. In the series on Mus musculus [31], the MSD was found to be 98.5 days.

The IC50 is the concentration that inhibits the measured activity by half.
